Target: human TLR7 (Homo sapiens (Human), UniProt Q9NYK1)
Assay: HEK293-Blue-hTLR-7 cells assay (SEAP reporter)
Assay type: cell-based
Conditions: 20 hours incubation
Excerpt: HEK293-Blue-hTLR-7 Cells Assay: A stable HEK293-Blue-hTLR-7 cell line was purchased from InvivoGen (Cat.#: hkb-htlr7, San Diego, Calif., USA). These cells were designed for studying the stimulation of human TLR7 by monitoring the activation of NF-κB. A SEAP (secreted embryonic alkaline phosphatase) reporter gene was placed under the control of the IFN-β minimal promoter fused to five NF-κB and AP-1-binding sites. The SEAP was induced by activating NF-κB and AP-1 via stimulating HEK-Blue hTLR7 cells with TLR7 ligands. Therefore the reporter expression was regulated by the NF-κB promoter upon stimulation of human TLR7. The cell culture supernatant SEAP reporter activity was determined using QUANTI-Blue™ kit (Cat.#: rep-qb1, Invivogen, San Diego, Ca, USA) at a wavelength of 640 nm, a detection medium that turns purple to blue in the presence of alkaline phosphatase. HEK293-Blue-hTLR7 cells were incubated at a density of 250,000˜450,000 cells/mL in a volume of 180 μL in a 96-well plate in Dulbecco's Modified Eagle's medium (DMEM) containing 4.5 g/l glucose, 50 U/ml penicillin, […] streptomycin, […] Normocin, 2 mM L-glutamine, 10% (v/v) heat-inactivated fetal bovine serum for 24 h. Then the HEK293-Blue-hTLR-7 cells were incubated with addition of 20 μL test compound in a serial dilution in the presence of final DMSO at 1% and perform incubation under 37° C. in a CO2 incubator for 20 hours. Then 20 μL of the supernatant from each well was incubated with 180 μL Quanti-blue substrate solution at 37° C. for 1-3 hours and the absorbance was read at 620˜655 nm using a spectrophotometer.

human TLR7, sequence (Q9NYK1 27-1049): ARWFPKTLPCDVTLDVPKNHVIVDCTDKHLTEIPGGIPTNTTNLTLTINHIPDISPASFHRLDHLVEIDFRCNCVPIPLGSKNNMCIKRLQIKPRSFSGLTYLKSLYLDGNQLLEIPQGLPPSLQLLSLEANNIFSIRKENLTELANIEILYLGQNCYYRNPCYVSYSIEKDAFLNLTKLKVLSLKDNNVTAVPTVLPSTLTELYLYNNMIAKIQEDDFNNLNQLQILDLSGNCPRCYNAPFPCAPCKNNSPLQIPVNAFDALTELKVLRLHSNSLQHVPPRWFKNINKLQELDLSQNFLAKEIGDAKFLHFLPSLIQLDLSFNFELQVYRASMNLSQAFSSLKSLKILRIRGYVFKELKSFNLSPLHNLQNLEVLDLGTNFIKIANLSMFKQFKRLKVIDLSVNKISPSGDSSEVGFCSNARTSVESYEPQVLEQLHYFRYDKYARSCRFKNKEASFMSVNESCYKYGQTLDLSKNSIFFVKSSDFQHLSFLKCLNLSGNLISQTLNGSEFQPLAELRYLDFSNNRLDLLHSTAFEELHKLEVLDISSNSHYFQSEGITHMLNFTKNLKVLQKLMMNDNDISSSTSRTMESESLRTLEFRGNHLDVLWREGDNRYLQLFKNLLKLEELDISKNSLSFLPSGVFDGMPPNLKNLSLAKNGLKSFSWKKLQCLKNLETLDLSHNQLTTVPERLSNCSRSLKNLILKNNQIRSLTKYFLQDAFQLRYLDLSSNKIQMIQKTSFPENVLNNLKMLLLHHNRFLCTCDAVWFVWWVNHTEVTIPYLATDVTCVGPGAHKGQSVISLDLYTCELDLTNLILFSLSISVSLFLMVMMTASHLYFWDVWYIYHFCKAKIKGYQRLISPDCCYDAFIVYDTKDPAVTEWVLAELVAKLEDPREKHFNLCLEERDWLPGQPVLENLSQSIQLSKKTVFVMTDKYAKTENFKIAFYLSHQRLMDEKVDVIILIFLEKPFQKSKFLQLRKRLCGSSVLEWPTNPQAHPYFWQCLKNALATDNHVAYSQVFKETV

Row | SMILES | EC50 [µM]
1 | CC(O)[C@@H]1C[C@@H](CO)O[C@H]1n1c(=O)sc2c(=O)[nH]c(N)nc21 (single isomer, unassigned) [Example 1-B] | 39
2 | Nc1nc2c(sc(=O)n2[C@@H]2O[C@H](CO)C[C@H]2C(O)C2CC2)c(=O)[nH]1 (single isomer, unassigned) [Example 2-A] | 156
3 | CCC(O)[C@@H]1C[C@@H](CO)O[C@H]1n1c(=O)sc2c(=O)[nH]c(N)nc21 (single isomer, unassigned) [Example 3-A] | 111
4 | Nc1nc2c(sc(=O)n2[C@@H]2O[C@H](CO)C[C@H]2C(O)c2ccccc2)c(=O)[nH]1 (single isomer, unassigned) [Example 4-A] | 205
5 | COc1ccccc1C(O)[C@@H]1C[C@@H](CO)O[C@H]1n1c(=O)sc2c(=O)[nH]c(N)nc21 (single isomer, unassigned) [Example 5-A] | 111
6 | Nc1nc2c(sc(=O)n2[C@@H]2O[C@H](CO)C[C@H]2C(O)c2ccccc2Cl)c(=O)[nH]1 (single isomer, unassigned) [Example 6-A] | 79
7 | Nc1nc2c(sc(=O)n2[C@@H]2O[C@H](CO)C[C@H]2[C@H](O)c2ccccn2)c(=O)[nH]1 [Example 7, 5-Amino-3-[(2R,3S,5S)-5-(hydroxymethyl)-3-[(S)-hydroxy(2-pyridyl)methyl]tetrahydrofuran-2-yl]-6H-thiazolo[4,5-d]pyrimidine-2,7-dione] | 225
8 | CC(C)(O)[C@@H]1C[C@@H](CO)O[C@H]1n1c(=O)sc2c(=O)[nH]c(N)nc21 [Example 8, 5-Amino-3-[(2R,3S,5S)-5-(hydroxymethyl)-3-(1-hydroxy-1-methyl-ethyl)tetrahydrofuran-2-yl]-6H-thiazolo[4,5-d]pyrimidine-2,7-dione] | 23
9 | CC[C@H](O)[C@@H]1C[C@@H]([C@@H](C)OC(C)=O)[C@H](n2c(=O)sc3c(=O)[nH]c(N)nc32)O1 [Example 9-A, [(1R)-1-[(2R,3S,5S)-2-(5-Amino-2,7-dioxo-6H-thiazolo[4,5-d]pyrimidin-3-yl)-5-[(1S)-1-hydroxypropyl]tetrahydrofuran-3-yl]ethyl] acetate] | 8.4

The remaining lines, values ahead:

Row | EC50 [µM] | SMILES
10 | 10.4 | CC[C@H](O)[C@@H]1C[C@@H]([C@H](O)c2ccccc2)[C@H](n2c(=O)sc3c(=O)[nH]c(N)nc32)O1 (single isomer, unassigned) [Example 18-A]
11 | 9.7 | CC[C@H](O)[C@@H]1C[C@@H]([C@H](O)c2ccccc2)[C@H](n2c(=O)sc3c(=O)[nH]c(N)nc32)O1 (single isomer, unassigned) [Example 18-B]
12 | 9.3 | CC[C@H](O)[C@@H]1C[C@@H]([C@H](C)OC(C)=O)[C@H](n2c(=O)sc3c(=O)[nH]c(N)nc32)O1 [Example 9-B, [(1S)-1-[(2R,3S,5S)-2-(5-amino-2,7-dioxo-6H-thiazolo[4,5-d]pyrimidin-3-yl)-5-[(1S)-1-hydroxypropyl]tetrahydrofuran-3-yl]ethyl] acetate]
13 | 2.7 | CC[C@H](O)[C@@H]1C[C@@H]([C@@H](C)O)[C@H](n2c(=O)sc3c(=O)[nH]c(N)nc32)O1 [Example 10-A, 5-Amino-3-[(2R,3S,5S)-3-[(1R)-1-hydroxyethyl]-5-[(1S)-1-hydroxypropyl]tetrahydrofuran-2-yl]-6H-thiazolo[4,5-d]pyrimidine-2,7-dione]
14 | 35 | CC[C@H](O)[C@@H]1C[C@@H]([C@H](C)O)[C@H](n2c(=O)sc3c(=O)[nH]c(N)nc32)O1 [Example 10-B, 5-amino-3-[(2R,3S,5S)-3-[(1S)-1-hydroxyethyl]-5-[(1S)-1-hydroxypropyl]tetrahydrofuran-2-yl]-6H-thiazolo[4,5-d]pyrimidine-2,7-dione]
15 | 26 | CCOC(=O)O[C@H](C)[C@@H]1C[C@@H]([C@@H](O)CC)O[C@H]1n1c(=O)sc2c(=O)[nH]c(N)nc21 [Example 11, [(1R)-1-[(2R,3S,5S)-2-(5-Amino-2,7-dioxo-6H-thiazolo[4,5-d]pyrimidin-3-yl)-5-[(1S)-1-hydroxypropyl]tetrahydrofuran-3-yl]ethyl] ethyl carbonate]
16 | 6.5 | CC[C@H](O)[C@@H]1C[C@@H]([C@@H](C)OC(=O)c2ccccc2)[C@H](n2c(=O)sc3c(=O)[nH]c(N)nc32)O1 [Example 12, [(1R)-1-[(2R,3S,5S)-2-(5-Amino-2,7-dioxo-6H-thiazolo[4,5-d]pyrimidin-3-yl)-5-[(1S)-1-hydroxypropyl]tetrahydrofuran-3-yl]ethyl] benzoate]
17 | 36 | CC[C@H](O)[C@@H]1C[C@@H]([C@@H](C)OC)[C@H](n2c(=O)sc3c(=O)[nH]c(N)nc32)O1 [Example 13, 5-Amino-3-[(2R,3S,5S)-5-[(1S)-1-hydroxypropyl]-3-[(1R)-1-methoxyethyl]tetrahydrofuran-2-yl]-6H-thiazolo[4,5-d]pyrimidine-2,7-dione]
18 | 60 | CC[C@H](O)[C@@H]1C[C@@H]([C@@H](C)OCc2ccccc2)[C@H](n2c(=O)sc3c(=O)[nH]c(N)nc32)O1 [Example 14, 5-Amino-3-[(2R,3S,5S)-3-[(1R)-1-benzyloxyethyl]-5-[(1S)-1-hydroxypropyl]tetrahydrofuran-2-yl]-6H-thiazolo[4,5-d]pyrimidine-2,7-dione]
19 | 68 | C=CCO[C@H](C)[C@@H]1C[C@@H]([C@@H](O)CC)O[C@H]1n1c(=O)sc2c(=O)[nH]c(N)nc21 [Example 15, 3-[(2R,3S,5S)-3-[(1R)-1-Allyloxyethyl]-5-[(1S)-1-hydroxypropyl]tetrahydrofuran-2-yl]-5-amino-6H-thiazolo[4,5-d]pyrimidine-2,7-dione]
20 | 35 | CC[C@H](O)[C@@H]1C[C@@H]([C@H](C)OC)[C@H](n2c(=O)sc3c(=O)[nH]c(N)nc32)O1 [Example 16, 5-Amino-3-[(2R,3S,5S)-5-[(1S)-1-hydroxypropyl]-3-[(1S)-1-methoxyethyl]tetrahydrofuran-2-yl]-6H-thiazolo[4,5-d]pyrimidine-2,7-dione]
21 | 15 | CC[C@H](OC(C)=O)[C@@H]1C[C@@H]([C@@H](C)O)[C@H](n2c(=O)sc3c(=O)[nH]c(N)nc32)O1 [Example 17, [(1S)-1-[(2S,4S,5R)-5-(5-Amino-2,7-dioxo-6H-thiazolo[4,5-d]pyrimidin-3-yl)-4-[(1R)-1-hydroxyethyl]tetrahydrofuran-2-yl]propyl] acetate]
22 | 19 | CC[C@H](O)[C@@H]1C[C@@H](C(C)(C)OC(C)=O)[C@H](n2c(=O)sc3c(=O)[nH]c(N)nc32)O1 [Example 19, [1-[(2R,3S,5S)-2-(5-Amino-2,7-dioxo-6H-thiazolo[4,5-d]pyrimidin-3-yl)-5-[(1S)-1-hydroxypropyl]tetrahydrofuran-3-yl]-1-methyl-ethyl] acetate]
23 | 3 | CC[C@H](O)[C@@H]1C[C@@H](C(C)(C)O)[C@H](n2c(=O)sc3c(=O)[nH]c(N)nc32)O1 [Example 20, 5-Amino-3-[(2R,3S,5S)-3-(1-hydroxy-1-methyl-ethyl)-5-[(1S)-1-hydroxypropyl]tetrahydrofuran-2-yl]-6H-thiazolo[4,5-d]pyrimidine-2,7-dione]

Source: patent US10065973B2, “Substituted aminothiazolopyrimidinedione for the treatment and prophylaxis of virus infection” (Hoffmann-La Roche Inc., priority 2016, dated 2018)
